# Results published in paper PMC8159160 (Journal of medicinal chemistry, 2021).
# Assay: in vivo
# Conditions: mouse, plasma; for clearance: iv, 15 mg/kg
clearance,"AUC (po, 50 mg/kg)",Compound
86.7 mL/min/kg,2.9 µM·h,"CCN1C(=O)[C@@H](NC(=O)c2cccc(C)c2)[C@@H](c2ccc(F)cc2)c2c(C)nn(-c3ccccc3)c21 (relative stereo) [Compound 2, N-(rel-(4S,5S)-7-ethyl-4-(4-fluorophenyl)-3-methyl-6-oxo-1-phenyl-4,5,6,7-tetrahydro-1H-pyrazolo[3,4-b]pyridin-5-yl)-3-methylbenzamide]"
20 mL/min/kg,,"CCN1C(=O)[C@@H](NC(=O)c2cccc(C(F)(F)F)c2)[C@@H](c2ccc(F)cc2)c2c(CN)nn(-c3ccccc3)c21 (relative stereo) [Compound 40, N-(rel-(4S,5S)-3-(aminomethyl)-7-ethyl-4-(4-fluorophenyl)-6-oxo-1-phenyl-4,5,6,7-tetrahydro-1H-pyrazolo[3,4-b]pyridin-5-yl)-3-(trifluoromethyl)benzamide]"
